# Laboratory results from patent publication US20240360114A1 (SIRONAX LTD., priority 2021, published 2024).
# System: HT-1080 cells
# Assay: HT-1080 cell viability assay (ferroptosis induced by RSL3, Cell Titer-Glo)
# Assay type: cell-based
# Settings: Homo sapiens, HT-1080, 20 h, ferroptosis inducer RSL3, 20 hours, ferroptosis inhibitory activity, Table 2
# Outline: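 Cells seeded overnight, then co-treated with RSL3 and compound (3-fold, 10-point dilution, top 1.1 μM) for 20 hours. Viability by CellTiter-Glo luminescence, normalized to untreated controls; EC50 from sigmoidal non-linear regression.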
row,Structure (SMILES),EC50
1,"NC1CCC(Nc2cc(F)c(N3CCC(C(F)(F)F)CC3)c(F)c2)CC1 (stereo not drawn) [Compound 54A, N1-(3,5-difluoro-4-(4-(trifluoromethyl)piperidin-1-yl)phenyl)cyclohexane-1,4-diamine]",0.1 to 100 nM
2,"Cc1c(NC2CCC(N)CC2)ccc(N2CCC(C(F)(F)F)CC2)c1F (stereo not drawn) [Compound 57, N1-(3-fluoro-2-methyl-4-(4-(trifluoromethyl)piperidin-1-yl)phenyl)cyclohexane-1,4-diamine]",0.1 to 100 nM
3,"Cc1cc(N2CCC(C(F)(F)F)CC2)c(F)cc1NC1CCC(N)CC1 (stereo not drawn) [Compound 58, N1-(5-fluoro-2-methyl-4-(4-(trifluoromethyl)piperidin-1-yl)phenyl)cyclohexane-1,4-diamine]",0.1 to 100 nM
4,"Cc1cc(N2CCC(C(F)(F)F)CC2)c(C)cc1NC1CCC(N)CC1 (stereo not drawn) [Compound 59, N1-(2,5-dimethyl-4-(4-(trifluoromethyl)piperidin-1-yl)phenyl)cyclohexane-1,4-diamine]",0.1 to 100 nM
5,"CC1CCN(c2ccc(NC3CCC(N)CC3)cc2)CC1 (stereo not drawn) [Compound 60, N1-(4-(4-methylpiperidin-1-yl)phenyl)cyclohexane-1,4-diamine]",0.1 to 100 nM
6,"CC1(C)CCN(c2ccc(NC3CCC(N)CC3)cc2)CC1 (stereo not drawn) [Compound 62, N1-(4-(4,4-dimethylpiperidin-1-yl)phenyl)cyclohexane-1,4-diamine]",0.1 to 100 nM
7,"NC1CCC(Nc2ccc(N3CCC(C(F)(F)F)CC3)c(Cl)c2)CC1 (stereo not drawn) [Compound 67, N1-(3-chloro-4-(4-(trifluoromethyl)piperidin-1-yl)phenyl)cyclohexane-1,4-diamine]",0.1 to 100 nM
8,"Cc1cc(N2CCC(C(F)(F)F)CC2)ccc1NC1CCC(N)CC1 (stereo not drawn) [Compound 69, N1-(2-methyl-4-(4-(trifluoromethyl)piperidin-1-yl)phenyl)cyclohexane-1,4-diamine]",0.1 to 100 nM
9,"NC1CCC(Nc2ccc(N3CCC(C(F)(F)F)CC3)cc2Cl)CC1 (stereo not drawn) [Compound 70, N1-(2-chloro-4-(4-(trifluoromethyl)piperidin-1-yl)phenyl)cyclohexane-1,4-diamine]",0.1 to 100 nM
10,"NC1CCC(Nc2ccc(N3CCC(C(F)(F)F)CC3)cc2F)CC1 (stereo not drawn) [Compound 71, N1-(2-fluoro-4-(4-(trifluoromethyl)piperidin-1-yl)phenyl)cyclohexane-1,4-diamine]",0.1 to 100 nM
11,"CCN1CCC(Nc2ccc(C3CCCCC3)cc2)CC1 [Compound 72, N-(4-cyclohexylphenyl)-1-ethylpiperidin-4-amine]",0.1 to 100 nM
12,"CC1(C)CCC(c2ccc(NC3CCC(N)CC3)cc2)CC1 (stereo not drawn) [Compound 74, N1-(4-(4,4-dimethylcyclohexyl)phenyl)cyclohexane-1,4-diamine]",0.1 to 100 nM
13,COCC1CCC(Nc2ccc(C3CCC(C)(C)CC3)cc2)CC1 (stereo not drawn) [Compound 75],100 to 1000 nM
14,"CN1CCC(NC(=O)C2CCC(Nc3ccc(C4CCC(C)(C)CC4)cc3)CC2)CC1 (stereo not drawn) [Compound 77, 4-((4-(4,4-dimethylcyclohexyl)phenyl)amino)-N-(1-methylpiperidin-4-yl)cyclohexane-1-carbox amide]",0.1 to 100 nM
15,"COCCOCCNc1ccc(C2CCC(C)(C)CC2)cc1 [Compound 79, 4-(4,4-dimethylcyclohexyl)-N-(2-(2-methoxyethoxy)ethyl)aniline]",100 to 1000 nM
16,"CC1(C)CCC(c2ccc(NC3CCC(CN)C3)cc2)CC1 (stereo not drawn) [Compound 83, N-(3-(aminomethyl)cyclopentyl)-4-(4,4-dimethylcyclohexyl)aniline]",0.1 to 100 nM
17,"CC1(C)CCC(c2ccc(NC3CCCC(CN)CC3)cc2)CC1 (stereo not drawn) [Compound 85, 4-(aminomethyl)-N-(4-(4,4-dimethylcyclohexyl)phenyl)cycloheptan-1-amine]",0.1 to 100 nM
18,"CNCC1CCC(Nc2ccc(C3CCC(C)(C)CC3)cc2)CC1 (stereo not drawn) [Compound 86, 4-(4,4-dimethylcyclohexyl)-N-(4-((methylamino)methyl)cyclohexyl)aniline]",0.1 to 100 nM
19,"CNCC1CCC(Nc2ccc(C(C)(C)C)cc2)CC1 (stereo not drawn) [Compound 87, 4-(tert-butyl)-N-(4-((methylamino)methyl)cyclohexyl)aniline]",0.1 to 100 nM
20,"NCC1CCC(Nc2ccc(C(F)(F)F)cc2)CC1 (stereo not drawn) [Compound 88, N-(4-(aminomethyl)cyclohexyl)-4-(trifluoromethyl)aniline]",1000 to 10000 nM
21,"CN(C)C(=O)C1CCC(Nc2ccc(C3CCC(C)(C)CC3)cc2)CC1 (stereo not drawn) [Compound 89, 4-((4-(4,4-dimethylcyclohexyl)phenyl)amino)-N,N-dimethylcyclohexane-1-carboxamide]",0.1 to 100 nM
22,"CC1(C)CCC(c2ccc(NC3CCOCC3)cc2)CC1 [Compound 93, N-(4-(4,4-dimethylcyclohexyl)phenyl)tetrahydro-2H-pyran-4-amine]",0.1 to 100 nM
23,"CC1(C)CCC(c2ccc(NC3CC(N)C3)cc2)CC1 (stereo not drawn) [Compound 94, N1-(4-(4,4-dimethylcyclohexyl)phenyl)cyclobutane-1,3-diamine]",0.1 to 100 nM
24,"CC(C)(C)c1ccc(NC2C3CC4CC2CC(CN)(C4)C3)cc1 (stereo not drawn) [Compound 98, 5-(aminomethyl)-N-(4-(tert-butyl)phenyl)adamantan-2-amine]",0.1 to 100 nM
25,"CN1CCC(Nc2ccc(C3CCC(C)(C)CC3)cc2)CC1=O (stereo not drawn) [Compound 103, 4-((4-(4,4-dimethylcyclohexyl)phenyl)amino)-1-methylpiperidin-2-one]",100 to 1000 nM
26,"CC1(C)CCC(c2ccc(NCCCCN3CCCC3)cc2)CC1 [Compound 105, 4-(4,4-dimethylcyclohexyl)-N-(4-(pyrrolidin-1-yl)butyl)aniline]",0.1 to 100 nM
27,"O=C1CC(C(=O)NC2CCC(Nc3ccc(C4CCCCC4)cc3)CC2)CN1 (stereo not drawn) [Compound 110, N-(4-((4-cyclohexylphenyl)amino)cyclohexyl)-5-oxopyrrolidine-3-carboxamide]",100 to 1000 nM
28,"O=C1NC[C@H](C(=O)NC2CCC(Nc3ccc(C4CCCCC4)cc3)CC2)N1 (stereo partly drawn) [Compound 111, (R)—N-(4-((4-cyclohexylphenyl)amino)cyclohexyl)-2-oxoimidazolidine-4-carboxamide]",100 to 1000 nM

# Second part, the molecule after the results:
row,EC50,Structure (SMILES)
1,0.1 to 100 nM,"CC1CCN(c2ccc(NC3CCC(N)CC3)cc2C(F)(F)F)CC1 (stereo not drawn) [Compound 53A, N1-(4-(4-methylpiperidin-1-yl)-3-(trifluoromethyl)phenyl)cyclohexane-1,4-diamine]"
2,0.1 to 100 nM,"CC1(C)CCN(c2ccc(NC3CCC(N)CC3)cc2C(F)(F)F)CC1 (stereo not drawn) [Compound 55, N1-(4-(4,4-dimethylpiperidin-1-yl)-3-(trifluoromethyl)phenyl)cyclohexane-1,4-diamine]"
3,0.1 to 100 nM,"Cc1cc(N2CCC(C(F)(F)F)CC2)c(Cl)cc1NC1CCC(N)CC1 (stereo not drawn) [Compound 56, N1-(5-chloro-2-methyl-4-(4-(trifluoromethyl)piperidin-1-yl)phenyl)cyclohexane-1,4-diamine]"
4,0.1 to 100 nM,"CCC1CCN(c2ccc(NC3CCC(N)CC3)cc2)CC1 (stereo not drawn) [Compound 61, N1-(4-(4-ethylpiperidin-1-yl)phenyl)cyclohexane-1,4-diamine]"
5,0.1 to 100 nM,"CC(C)C1CCN(c2ccc(NC3CCC(N)CC3)cc2)CC1 (stereo not drawn) [Compound 63, N1-(4-(4-isopropylpiperidin-1-yl)phenyl)cyclohexane-1,4-diamine]"
6,0.1 to 100 nM,"Cc1cc(NC2CCC(N)CC2)ccc1N1CCC(C(F)(F)F)CC1 (stereo not drawn) [Compound 66, N1-(3-methyl-4-(4-(trifluoromethyl)piperidin-1-yl)phenyl)cyclohexane-1,4-diamine]"
7,0.1 to 100 nM,"NC1CCC(Nc2ccc(N3CCC(C(F)(F)F)CC3)c(F)c2)CC1 (stereo not drawn) [Compound 68, N1-(3-fluoro-4-(4-(trifluoromethyl)piperidin-1-yl)phenyl)cyclohexane-1,4-diamine]"
8,0.1 to 100 nM,"CC1(C)CCC(c2ccc(NC3CCC(CN)CC3)cc2)CC1 (stereo not drawn) [Compound 78, N-(4-(aminomethyl)cyclohexyl)-4-(4,4-dimethylcyclohexyl)aniline]"
9,100 to 1000 nM,"Cc1nc(C2CCC(C)(C)CC2)ccc1NC1CCC(CN)CC1 (stereo not drawn) [Compound 80, N-(4-(aminomethyl)cyclohexyl)-6-(4,4-dimethylcyclohexyl)-2-methylpyridin-3-amine]"
10,0.1 to 100 nM,"CC1(C)CCC(c2ccc(NC3CC(CN)C3)cc2)CC1 (stereo not drawn) [Compound 84, N-(3-(aminomethyl)cyclobutyl)-4-(4,4-dimethylcyclohexyl)aniline]"
11,0.1 to 100 nM,CC1(C)CCC(c2ccc(NC3CCC(CO)CC3)cc2)CC1 (stereo not drawn) [Compound 90]
12,0.1 to 100 nM,"CC(C)(C)c1ccc(NC2C3CC4CC2CC(N)(C4)C3)cc1 (stereo not drawn) [Compound 95, N^4-(4-(tert-butyl)phenyl)adamantane-1,4-diamine]"
13,0.1 to 100 nM,"CC(C)(C)c1ccc(NC2CCC(CN)CC2)cc1 (stereo not drawn) [Compound 96, N-(4-(aminomethyl)cyclohexyl)-4-(tert-butyl)aniline]"
14,0.1 to 100 nM,"CC1(N)CCC(Nc2ccc3c(c2)CCC3)CC1 (stereo not drawn) [Compound 99, N1-(2,3-dihydro-1H-inden-5-yl)-4-methylcyclohexane-1,4-diamine]"
15,0.1 to 100 nM,"CC1(C)CCC(c2ccc(NCCN3CCCC3)cc2)CC1 [Compound 101, 4-(4,4-dimethylcyclohexyl)-N-(2-(pyrrolidin-1-yl)ethyl)aniline]"
16,0.1 to 100 nM,"CC1(C)CCC(c2ccc(NC3CCNC(=O)C3)cc2)CC1 (stereo not drawn) [Compound 102, 4-((4-(4,4-dimethylcyclohexyl)phenyl)amino)piperidin-2-one]"
17,100 to 1000 nM,"CC1(C)CCC(c2ccc(NCCN3CCCC3=O)cc2)CC1 [Compound 104, 1-(2-((4-(4,4-dimethylcyclohexyl)phenyl)amino)ethyl) pyrrolidin-2-one]"
18,100 to 1000 nM,"c1cc(C2CCCCC2)ccc1NC1CCNC1 (stereo not drawn) [Compound 108, N-(4-cyclohexylphenyl)pyrrolidin-3-amine]"
19,100 to 1000 nM,"c1cc(C2CCCCC2)ccc1NC1CNC1 [Compound 109, N-(4-cyclohexylphenyl)azetidin-3-amine]"

# Same assay, conditions: Homo sapiens, ferroptosis inducer RSL3, 20 hours, ferroptosis inhibitory activity, Table 2
row,Structure (SMILES),EC50
1,"CN1CCC(N2CCC(Nc3ccc(C4CCC(C)(C)CC4)cc3)CC2)CC1 [Compound 100, N-(4-(4,4-dimethylcyclohexyl)phenyl)-1′-methyl-[1,4′-bipiperidin]-4-amine]",100 to 1000 nM
